Among the data in ChEMBL document CHEMBL1240307, “A functional genomics approach to the mode of action of apratoxin A” (Nat Chem Biol, 2006) are inhibition values, retold here.

Active and inactive are the calls of the source. The rule behind the calls is not given here.

The species entered for assay [1] is Danio rerio. Nature of the assay: Inhibition of FGFR-mediated mkp3 mRNA expression in Zebrafish dorsal forebrain at 40 uM by in situ hybridization analysis. It counts as tissue-based.
Assay [2] is filed under the species Danio rerio. The assay can be described thus: Inhibition of FGFR-mediated mkp3 mRNA expression in Zebrafish embryo tailbud region at 40 uM by in situ hybridization analysis.
The species named for assay [3] is Danio rerio. The assay can be described thus: Inhibition of FGFR-mediated mkp3 mRNA expression in Zebrafish embryo mid-hind brain boundary at 40 uM by in situ hybridization analysis.
The species named for assay [4] is Danio rerio. Nature of the assay: Inhibition of FGFR-mediated distal pectoral fin development in Zebrafish embryo at 700 nM by in situ hybridization method at 48-60 hrs post fertilization stage.
The species named for assay [5] is Danio rerio. Nature of the assay: Inhibition of FGFR-mediated fin development in Zebrafish embryo at 40 uM by in situ hybridization method at 48-60 hrs post fertilization stage.

For orientation: inhibition means the percentage by which the read-out fell short of the control. For the molecule `Cc1c[nH]c(/C=C2\C(=O)Nc3ccccc32)c1CCC(=O)O`, the inhibition result in the assay listed under Danio rerio [1], in the assay listed under Danio rerio [2] and in the assay filed under Danio rerio [3] was “Active” in each case. Also, the values for the inhibition in the assay filed under Danio rerio [4] and in the assay listed under Danio rerio [5] were 72% and 76%, respectively.
